Here are results for 17 compounds from PubChem BioAssay (NCI).

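96-well plates; 48 h exposure; 5 concentrations. Endpoints by linear interpolation between flanking doses. Not reached: highest tested concentration assigned. TGI is the concentration that stops growth completely.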 Where a SMILES comes first, the peptide text is derived from it. The star is where a group is joined. Cbz = O=C(OCc1ccccc1)*; Boc = CC(C)(C)OC(=O)*; Bn = c1ccc(C*)cc1

Among the test systems are TK-10 renal; PC-3 prostate; UACC-62 melanoma; HCC-2998 colon; RPMI-8226 leukemia; LOX IMVI melanoma; NCI-H460 lung.
What all share (experiment): NCI tumour cell line growth inhibition, 48 h

With `CC(C)(C)OC(=O)NC(Cc1ccc(OCc2ccccc2)cc1)C(=O)NC(CCCCNC(=O)OCc1ccccc1)C(=O)O` (centres undefined) (Boc-Tyr(Bn)-Lys(Cbz)-OH; configuration not given here), the TGI in the test with TK-10 renal was greater than 100 µM; in the test on PC-3 prostate, greater than 100 µM; in the test with UACC-62 melanoma, 43.9 µM; in the test on HCC-2998 colon, greater than 100 µM; in the test with RPMI-8226 leukemia it was greater than 100 µM.

`Cc1nc2ccc(F)cc2c2c1CCO2`: the TGI in the test on LOX IMVI melanoma, in the test with TK-10 renal, in the test with UACC-62 melanoma, in the test with HCC-2998 colon, in the test on NCI-H460 lung and in the test on RPMI-8226 leukemia was greater than 100 µM throughout.

With `COc1ccc(C(=O)/C=C/c2ccc(OCCSCCCCCCCCCCSCCOc3ccc(/C=C/C(=O)c4ccc(OC)cc4)cc3)cc2)cc1`, the TGI with TK-10 renal, in the test with PC-3 prostate, in the test with UACC-62 melanoma, with HCC-2998 colon, in the test with NCI-H460 lung and with RPMI-8226 leukemia was greater than 100 µM throughout.

With `O=C(N/N=C/c1ccc([N+](=O)[O-])cc1)c1cccc2nc3ccccc3nc12`, the TGI with LOX IMVI melanoma is greater than 100 µM; in the test on TK-10 renal, greater than 69.2 µM; in the test on PC-3 prostate, greater than 100 µM; with UACC-62 melanoma it was greater than 100 µM; with NCI-H460 lung, greater than 64.4 µM; in the test with RPMI-8226 leukemia, greater than 100 µM.

`O=C(O)CSCC(=O)O`: the TGI in the test with LOX IMVI melanoma, in the test with TK-10 renal, in the test on PC-3 prostate, in the test with UACC-62 melanoma and in the test on NCI-H460 lung was greater than 100 µM throughout.

As for `COC(=O)C1CC=C(SC(=O)c2ccccc2)N1C(=O)c1ccccc1` (centres undefined), the TGI in the test on TK-10 renal, in the test with PC-3 prostate, in the test on UACC-62 melanoma, with HCC-2998 colon, in the test with NCI-H460 lung and in the test with RPMI-8226 leukemia was greater than 100 µM in each case.

For `C=C[C@H]1CC[C@H]2[C@@H]3CC=C4C[C@@H](OC5OCC(O)C(O)C5O)CC[C@]4(C)[C@H]3CC[C@]12C` (some centres undefined), the TGI in the test on LOX IMVI melanoma is 26.7 µM; in the test on PC-3 prostate it was 37.7 µM; with UACC-62 melanoma, 54.3 µM; with NCI-H460 lung, 28.4 µM; in the test with RPMI-8226 leukemia, greater than 100 µM.

`O=C1CCCCC1=C(I)I`: the TGI with PC-3 prostate was 30.9 µM; in the test on UACC-62 melanoma, 33.9 µM; in the test on HCC-2998 colon, 29.5 µM; with NCI-H460 lung, 44.1 µM; with RPMI-8226 leukemia it was 53.4 µM.

As to `NC1CC(N)c2c(Br)sc(Br)c21` (centres undefined), the TGI in the test with LOX IMVI melanoma, in the test on TK-10 renal, in the test on UACC-62 melanoma, in the test on HCC-2998 colon and with NCI-H460 lung was greater than 100 µM each time.

For the compound `O=C1NC(=S)NC(=O)C1C(c1ccc([N+](=O)[O-])cc1)C1C(=O)NC(=S)NC1=O`, the TGI in the test on LOX IMVI melanoma, with TK-10 renal, in the test on PC-3 prostate, in the test with UACC-62 melanoma, with NCI-H460 lung and in the test with RPMI-8226 leukemia was greater than 100 µM each time.

`O=c1[nH]c(=O)n(COCCO)c2ccc(Br)cc12`: the TGI in the test with LOX IMVI melanoma, in the test on TK-10 renal, in the test with UACC-62 melanoma and in the test on NCI-H460 lung was greater than 100 µM throughout.

Turning to `COc1ccc(C2C3CCc4ccccc4C3=NN2S(=O)(=O)c2ccc(Cl)cc2)cc1` (centres undefined), the TGI in the test on LOX IMVI melanoma was greater than 100 µM; in the test on TK-10 renal, greater than 100 µM; in the test on PC-3 prostate, greater than 100 µM; in the test on UACC-62 melanoma, greater than 100 µM; with NCI-H460 lung, greater than 100 µM; with RPMI-8226 leukemia, 51.3 µM.

`CN1CCN(c2cc3c(cc2F)c(=O)c(C(=O)O)cn3C2CC2)CC1CC#N` (centres undefined): the TGI in the test with LOX IMVI melanoma, in the test with TK-10 renal, in the test with UACC-62 melanoma, in the test on HCC-2998 colon, in the test on NCI-H460 lung and in the test with RPMI-8226 leukemia was greater than 100 µM each time.

As to `Cc1cc(C)nc(NC(=S)Nc2ccccc2Cl)c1`, the TGI with LOX IMVI melanoma, with TK-10 renal, in the test on PC-3 prostate, in the test on UACC-62 melanoma, with NCI-H460 lung and with RPMI-8226 leukemia was greater than 100 µM in each case.

On to `OCC1OC(Oc2cc(O)cc(/C=C/c3ccc(O)cc3)c2)C(O)C(O)C1O` (centres undefined), for which the TGI in the test with LOX IMVI melanoma, with TK-10 renal, in the test on PC-3 prostate, with UACC-62 melanoma, in the test on NCI-H460 lung and in the test with RPMI-8226 leukemia was greater than 100 µM in each case.

In the case of `COc1cccc(Nc2nc(-c3cccs3)nc3ccc(Br)cc23)c1`, the TGI in the test with LOX IMVI melanoma, in the test with TK-10 renal, in the test on PC-3 prostate, in the test on UACC-62 melanoma, with NCI-H460 lung and in the test with RPMI-8226 leukemia was greater than 100 µM each time.

As for `CCN1CN(c2ccccc2)C2(CCN(CCCSc3ccc(F)cc3)CC2)C1=O`, the TGI was 31.5 µM in the test with LOX IMVI melanoma; 26.3 µM with TK-10 renal; 28.1 µM in the test on PC-3 prostate; 30.2 µM with UACC-62 melanoma; 46.8 µM in the test on RPMI-8226 leukemia.
